From patent publication US8980848B2, “Flavonoid dimers and their use” (The Hong Kong Polytechnic University, priority 2010, dated 2015)
Read-outs that look alike come from different tables or passages of the source.

Assays:
LCC6MDR cells = test: Tumor cell line cytotoxicity of flavonoid dimers, LCC6MDR; format: cell-based, human; conditions: IC50 of compound alone, 72 hrs
How it was run: (§1)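 LCC6, LCC6MDR and L929 cells seeded at 1×10^4 cells/well and exposed to graded doses of flavonoid dimers. Incubation 72 hrs at 37° C., 5% CO2. Read-out: % survivors.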

LCC6 cells [1] = test: Tumor cell line cytotoxicity of flavonoid dimers, LCC6; format: cell-based, human; conditions: IC50 of compound alone, 72 hrs
How it was run: as §1

L929 cells = test: Cytotoxicity of flavonoid dimers, L929 mouse fibroblast; format: cell-based
How it was run: as §1

Pgp (LCC6MDR cells) [2] = biological target: T1, Pgp (LCC6MDR cells) (Homo sapiens, UniProt P08183)
T1 sequence (P08183 whole entry): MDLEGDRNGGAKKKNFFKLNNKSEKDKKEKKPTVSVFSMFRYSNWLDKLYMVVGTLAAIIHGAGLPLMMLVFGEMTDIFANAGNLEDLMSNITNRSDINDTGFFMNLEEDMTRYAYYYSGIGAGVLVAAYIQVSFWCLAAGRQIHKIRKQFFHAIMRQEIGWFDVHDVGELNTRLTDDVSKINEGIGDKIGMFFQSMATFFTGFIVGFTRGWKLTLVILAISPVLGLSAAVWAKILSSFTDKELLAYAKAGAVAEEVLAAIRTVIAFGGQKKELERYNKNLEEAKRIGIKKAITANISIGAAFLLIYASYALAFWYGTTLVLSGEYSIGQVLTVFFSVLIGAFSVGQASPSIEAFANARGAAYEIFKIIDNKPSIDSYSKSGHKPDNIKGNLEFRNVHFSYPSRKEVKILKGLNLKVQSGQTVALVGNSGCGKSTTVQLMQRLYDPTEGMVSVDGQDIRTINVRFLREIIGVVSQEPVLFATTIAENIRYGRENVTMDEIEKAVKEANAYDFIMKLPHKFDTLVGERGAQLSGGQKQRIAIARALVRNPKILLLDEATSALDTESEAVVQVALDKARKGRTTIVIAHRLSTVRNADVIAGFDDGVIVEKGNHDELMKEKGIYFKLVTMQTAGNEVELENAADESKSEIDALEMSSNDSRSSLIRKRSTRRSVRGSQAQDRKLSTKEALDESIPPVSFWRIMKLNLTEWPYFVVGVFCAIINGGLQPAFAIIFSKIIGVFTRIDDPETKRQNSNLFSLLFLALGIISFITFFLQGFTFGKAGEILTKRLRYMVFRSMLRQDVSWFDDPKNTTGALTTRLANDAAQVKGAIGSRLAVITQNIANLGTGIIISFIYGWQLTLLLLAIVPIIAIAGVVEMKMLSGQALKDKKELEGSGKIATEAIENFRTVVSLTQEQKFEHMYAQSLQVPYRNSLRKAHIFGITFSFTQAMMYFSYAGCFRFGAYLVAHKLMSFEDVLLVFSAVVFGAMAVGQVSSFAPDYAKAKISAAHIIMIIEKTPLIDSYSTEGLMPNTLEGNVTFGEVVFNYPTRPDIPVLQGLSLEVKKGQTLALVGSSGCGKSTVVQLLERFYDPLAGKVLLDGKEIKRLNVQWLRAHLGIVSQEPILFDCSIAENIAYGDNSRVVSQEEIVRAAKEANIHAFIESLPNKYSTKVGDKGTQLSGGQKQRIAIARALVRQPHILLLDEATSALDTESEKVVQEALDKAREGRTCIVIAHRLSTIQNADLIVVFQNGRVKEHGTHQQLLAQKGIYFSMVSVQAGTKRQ
Procedure: (§3) Cell Proliferation Assay. 6,000 cells of LCC6 or LCC6MDR and anticancer drugs (paclitaxel, vinblastine, vincristine, doxorubicin and mitoxantrone) were mixed with or without modulators to a final volume of 200 μL in each well of 96-well plates. […] The plates were then incubated for 5 days at 37° C. […] IC50 values were calculated from the dose-response curves of MTS assays (Prism 4.0).

[3] = test system: LCC6, LCC6MDR and L929 cell lines; test: Cytotoxicity over LCC6, LCC6MDR and L929 cell lines; format: cell-based, human, mouse
Procedure: (b) Tumor Cell Line Cytotoxicity. The tumor cytotoxicity assays of flavonoid dimers were performed against LCC6, LCC6MDR and L929 cell lines. The cells were grown in supplemented DMEM media in an atmosphere of 95% air and 5% CO2 at 37° C. In brief, LCC6, LCC6MDR and L929 cells were seeded into 96-well flat bottom microtiter plate at 1×10^4 cells per well in a final volume of 100 μL media, respectively. A graded dose of flavonoid dimers was added into wells. The plate was incubated at 37° C. for 72 hrs at the atmosphere 5% CO2 in the air. The % of survivors was determined.

[4] = test system: LdAG83 promastigotes (wild type); test: In vitro anti-promastigote activity, LdAG83; format: cell-based, Leishmania donovani; conditions: 3 days at 27° C., MTS; read-out: Anti-promastigotes activity (IC50, μM) LdAG83
How it was run: (§2)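 L. donovani (LdAG83 wild type, SSG-resistant Ld39) and L. major Lm50122 promastigotes were seeded at 1×10^5 per well with a concentration series of compound.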

[5] = test system: Ld39 promastigotes (SSG-resistant); test: In vitro anti-promastigote activity, Ld39; format: cell-based, Leishmania donovani; conditions: 3 days at 27° C., MTS; read-out: Anti-promastigotes activity (IC50, μM) Ld39
How it was run: as §2

Raw264.7 cells = test: Cytotoxicity, mouse macrophage Raw264.7; format: cell-based; conditions: 72 hrs
How it was run: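 Raw264.7 (1×10^4 cells/well) and primary PEM cells (2×10^4 cells/well) in supplemented DMEM received graded compound doses and were incubated 72 h at 37 °C, 5% CO2. Percent survivors determined; cytotoxicity IC50 used for therapeutic index against antileishmanial IC50.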

Pgp (LCC6MDR cells) [6] = biological target: T1, Pgp (LCC6MDR cells); test: Cell proliferation assay: Pgp-modulating activity, reversal of anticancer drug resistance in LCC6MDR cells; conditions: for RF (Relative Fold), cpd at 0.5 μM: RF = (IC50 without modulator)/(IC50 with 0.5 μM modulator); for RF (Relative Fold), cpd at 0.5 μM / RF (Relative Fold), cpd at 1 μM: paclitaxel, LCC6MDR; for RF (Relative Fold), cpd at 1 μM: RF = (IC50 without modulator)/(IC50 with 1.0 μM modulator)
Procedure: as §3

Lm50122 promastigotes = test: In vitro anti-promastigote activity, Lm50122; format: cell-based, Leishmania major; conditions: 3 days at 27° C., MTS; read-out: Anti-promastigotes activity (IC50, μM) Lm50122
Procedure: Cell Lines and Cell Culture. Promastigotes of Leishmania donovani (wild type LdAG83, pentamidine-resistant LdAG83-PentR50, and SSG-resistant Ld39) and Leishmania major [MHOM/IL/67/JERICHO II (Lm50122), from ATCC] were used in this study.
In Vitro Anti-Promastigote Activity. The viability of promastigotes was determined by the Cell Titer 96° Aqueous Assay (Promega) that employs a tetrazolium compound (MTS, 2-(4,5-Dimethylthiazol-2-yl-)-5-[3-(carboxymethoxy)phenyl]-2-(4-sulfophenyl)-2H-tetrazolium) and electron coupling reagent, phenazine methosulfate (PMS).^7 Promastigotes were seeded into 96-well flat bottom microtiter plate at 1×10^5 cells per well in a final volume of 100 μL medium and incubated with a series concentration of synthetic flavonoid dimers or known antileishmanials. The parasites were incubated at 27° C. for 72 hrs. Fresh solution of 2 mg/mL MTS and 0.92 mg/mL PMS were prepared in a ratio of 20:1 (MTS:PMS). After 72 hrs incubation, 10 μL of MTS:PMS mixture was added into each well of microtiter plate. The plate was then incubated at 27° C. for 4 hrs for color development. After 4 hrs incubation, the OD values were determined at 490 nm using automatic microtiter plate reader (Bio-Rad).

LCC6 cells [7] = test: Doxorubicin accumulation in LCC6 cells; format: cell-based, human; conditions: 1 μM
From the text: Doxorubycin accumulation. […] […].

What does the source list for “1,13-Bis[4′-((5-hydroxy)-4H-chromen-4-on-2-yl)phenyl]-7-(tert-butyloxycarbonyl)-1,4,10,13-tetraoxa-7-azamidecane [Compound 16f]”?
IC50 (LCC6MDR cells): > 100 µM; IC50 (LCC6 cells [1]): > 100 µM; IC50 (L929 cells): > 100 µM; RF (Relative Fold), cpd at 0.5 μM (Pgp (LCC6MDR cells) [2]): (11.3)

Which IC50 (LCC6MDR cells) does the source give for `CCN(CCOCCOc1ccc(-c2cc(=O)c3ccccc3o2)cc1)CCOCCOc1ccc(-c2cc(=O)c3ccccc3o2)cc1` [Compound 13, 1,13-Bis[4′-(4H-chromen-4-on-2-yl)phenyl]-N-(ethyl)-1,4,10,13-tetraoxa-7-azamidecane] here?
Its IC50 is 17.3 ± 3.8 µM.

And the IC50 (LCC6 cells [1])?
Its IC50 is 10.3 ± 2.2 µM.

What about the IC50 (L929 cells) of the same molecule?
Its IC50 is 6.9 ± 2 µM.

And the IC50 [3]?
The IC50 was 6.9 to 17.3 µM.

And the IC50 [4]?
Its IC50 is 3.2 ± 0.8 µM.

What about the IC50 [5] of the same molecule?
Its IC50 is 5.5 ± 1.1 µM.

And the IC50 (Raw264.7 cells)?
Its IC50 is 8.3 ± 1 µM.

And the EC50 (Pgp (LCC6MDR cells) [2])?
Its EC50 is 0.2 µM.

What about the Therapeutic index (Pgp (LCC6MDR cells) [6]; IC50 of compounds for L929/EC50 of compounds for lowering paclitaxel drug resistance) of the same molecule?
Its Therapeutic index is 34.5.

What about the “RF (Relative Fold), cpd at 0.5 μM” value (Pgp (LCC6MDR cells) [6]) of the same molecule?
The value was “(26.9)”.

With `O=c1cc(-c2ccc(OCCOCCN(CCO)CCOCCOc3ccc(-c4cc(=O)c5ccccc5o4)cc3)cc2)oc2ccccc12` [Compound 14, 1,13-Bis[4′-(4H-chromen-4-on-2-yl)phenyl]-N-(2-hydroxyethyl)-1,4,10,13-tetraoxa-7-azamidecane] as the molecule, how does the IC50 (LCC6MDR cells) read?
Its IC50 is 14.8 ± 5.9 µM.

And the IC50 (LCC6 cells [1])?
The IC50 was 10.7 ± 3.3 µM.

And the IC50 (L929 cells)?
The IC50 was 6.9 ± 1.4 µM.

And the IC50 [3]?
Its IC50 is 6.9 to 14.8 µM.

And the IC50 [4]?
Its IC50 is 3.2 ± 1.1 µM.

What about the IC50 [5] of the same molecule?
The IC50 was 7.2 ± 2.2 µM.

And the IC50 (Raw264.7 cells)?
The IC50 was 6.4 ± 1.5 µM.

And the “RF (Relative Fold), cpd at 0.5 μM” value (Pgp (LCC6MDR cells) [6])?
The value was “(5.0)”.

Which IC50 (LCC6MDR cells) does the source give for `CCOC(=O)CCN(CCOCCOc1ccc(-c2cc(=O)c3ccccc3o2)cc1)CCOCCOc1ccc(-c2cc(=O)c3ccccc3o2)cc1` [Compound 15, 1,13-Bis[4′-(4H-chromen-4-on-2-yl)phenyl]-N-(3-ethoxy-3-oxopropyl)-1,4,10,13-tetraoxa-7-azamidecane] here?
Its IC50 is 17.7 ± 3.7 µM.

What about the IC50 (LCC6 cells [1]) of the same molecule?
Its IC50 is 13.5 ± 0.5 µM.

And the IC50 (L929 cells)?
Its IC50 is 18.1 ± 3.4 µM.

And the IC50 [3]?
The IC50 was 13.5 to 17.7 µM.

What about the IC50 [4] of the same molecule?
Its IC50 is 3.8 ± 0.8 µM.

What about the IC50 [5] of the same molecule?
Its IC50 is 6.6 ± 0.2 µM.

And the “RF (Relative Fold), cpd at 0.5 μM” value (Pgp (LCC6MDR cells) [6])?
The value was “(5.3)”.

Which results are given for `CC(C)(C)OC(=O)N(CCOCCOc1ccc(-c2cc(=O)c3c(OCc4ccccc4)cccc3o2)cc1)CCOCCOc1ccc(-c2cc(=O)c3c(OCc4ccccc4)cccc3o2)cc1` [Compound 16e, 1,13-Bis[4′-((5-benzyloxy)-4H-chromen-4-on-2-yl)phenyl]-7-(tert-butyloxycarbonyl)-1,4,10,13-tetraoxa-7-azamidecane]?
IC50 (LCC6MDR cells): > 100 µM; IC50 (LCC6 cells [1]): > 100 µM; RF (Relative Fold), cpd at 0.5 μM (Pgp (LCC6MDR cells) [2]): (1.1)

For `CC(C)(C)OC(=O)N(CCOCCOc1ccc(-c2oc3ccccc3c(=O)c2OCc2ccccc2)cc1)CCOCCOc1ccc(-c2oc3ccccc3c(=O)c2OCc2ccccc2)cc1` [Compound 16g, 1,13-Bis[4′-((3-benzyloxy)-4H-chromen-4-on-2-yl)phenyl]-7-(tert-butyloxycarbonyl)-1,4,10,13-tetraoxa-7-azamidecane], which “RF (Relative Fold), cpd at 1 μM” value (Pgp (LCC6MDR cells) [2]) is on record?
Its value is 1.2.

Which results are given for `Cc1ccc2oc(-c3ccc(OCCOCCN(CCOCCOc4ccc(-c5cc(=O)c6cc(C)ccc6o5)cc4)C(=O)OC(C)(C)C)cc3)cc(=O)c2c1` [Compound 17c, 1,13-Bis[4′-((6-methyl)-4H-chromen-4-on-2-yl)phenyl]-N-(tert-butyloxycarbonyl)-1,4,10,13-tetraoxa-7-azamidecane]?
IC50 (LCC6MDR cells): > 100 µM; IC50 (LCC6 cells [1]): > 100 µM; IC50 (L929 cells): > 100 µM; IC50 [3]: > 100 µM; IC50 [4]: 21 µM; IC50 [5]: 100 µM; IC50 (Lm50122 promastigotes): > 100 µM; IC50 (Raw264.7 cells): > 100 µM; RF (Relative Fold), cpd at 0.5 μM (Pgp (LCC6MDR cells) [6]): (9.6); RF (Relative Fold), cpd at 1 μM (Pgp (LCC6MDR cells) [6]): (139.2); RF (Relative Fold), cpd at 1 μM (Pgp (LCC6MDR cells) [6]; listed as 17): 139.0

How did the “Effect on intracellular doxorubicin accumulation in parental LCC6” value (LCC6 cells [7]) turn out when `COc1ccc(CCN(C)CCCC(C#N)(c2ccc(OC)c(OC)c2)C(C)C)cc1OC` (stereo not drawn) [Verapamil, verapamil, reference compound] was run?
Its value is “does not increase”.
